Source: ChEMBL document CHEMBL4017513, “Structure-Activity Relationships of Potent, Targeted Covalent Inhibitors That Abolish Both the Transamidation and GTP Binding Activities of Human Tissue Transglutaminase” (J Med Chem, 2017)
pEC50, pKi: −log10 of the molar value.

Legend:
[1] = species: Cavia porcellus; assay: Ratio of Kinact to Ki for guinea pig liver TG2
[2] = target: T1, Protein-glutamine gamma-glutamyltransferase (Homo sapiens) (UniProt P21980); assay: (§1) Irreversible inhibition of human TG2 using AL5 as substrate by colorimetric assay
T1 sequence (whole entry): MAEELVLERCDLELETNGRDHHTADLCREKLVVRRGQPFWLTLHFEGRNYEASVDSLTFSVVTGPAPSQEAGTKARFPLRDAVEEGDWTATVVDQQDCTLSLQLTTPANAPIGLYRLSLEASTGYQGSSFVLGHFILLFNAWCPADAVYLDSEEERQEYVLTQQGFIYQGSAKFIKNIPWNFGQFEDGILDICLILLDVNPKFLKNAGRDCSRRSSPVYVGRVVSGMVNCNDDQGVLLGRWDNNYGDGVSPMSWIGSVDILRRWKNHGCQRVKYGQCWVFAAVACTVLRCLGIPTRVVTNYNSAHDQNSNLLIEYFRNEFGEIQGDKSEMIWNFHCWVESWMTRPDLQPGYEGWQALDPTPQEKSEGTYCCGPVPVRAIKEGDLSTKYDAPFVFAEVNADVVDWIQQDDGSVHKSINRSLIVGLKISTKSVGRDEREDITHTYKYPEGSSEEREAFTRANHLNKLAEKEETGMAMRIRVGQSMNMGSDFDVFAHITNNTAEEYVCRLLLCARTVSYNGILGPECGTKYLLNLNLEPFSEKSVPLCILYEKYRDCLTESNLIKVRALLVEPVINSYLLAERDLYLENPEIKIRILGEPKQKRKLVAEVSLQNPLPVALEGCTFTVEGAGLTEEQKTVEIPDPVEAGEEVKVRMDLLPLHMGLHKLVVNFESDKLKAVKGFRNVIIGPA

[3] = target: T2, Protein-glutamine gamma-glutamyltransferase (Homo sapiens, UniProt P21980); assay: as §1
T2 sequence (P21980 whole entry): T1 sequence (whole entry)

[4] = target: T3, Protein-glutamine gamma-glutamyltransferase 6 (Homo sapiens) (UniProt O95932); assay: Inactivation of human TG6 using AL5 as substrate by colorimetric assay
T3 sequence (whole entry): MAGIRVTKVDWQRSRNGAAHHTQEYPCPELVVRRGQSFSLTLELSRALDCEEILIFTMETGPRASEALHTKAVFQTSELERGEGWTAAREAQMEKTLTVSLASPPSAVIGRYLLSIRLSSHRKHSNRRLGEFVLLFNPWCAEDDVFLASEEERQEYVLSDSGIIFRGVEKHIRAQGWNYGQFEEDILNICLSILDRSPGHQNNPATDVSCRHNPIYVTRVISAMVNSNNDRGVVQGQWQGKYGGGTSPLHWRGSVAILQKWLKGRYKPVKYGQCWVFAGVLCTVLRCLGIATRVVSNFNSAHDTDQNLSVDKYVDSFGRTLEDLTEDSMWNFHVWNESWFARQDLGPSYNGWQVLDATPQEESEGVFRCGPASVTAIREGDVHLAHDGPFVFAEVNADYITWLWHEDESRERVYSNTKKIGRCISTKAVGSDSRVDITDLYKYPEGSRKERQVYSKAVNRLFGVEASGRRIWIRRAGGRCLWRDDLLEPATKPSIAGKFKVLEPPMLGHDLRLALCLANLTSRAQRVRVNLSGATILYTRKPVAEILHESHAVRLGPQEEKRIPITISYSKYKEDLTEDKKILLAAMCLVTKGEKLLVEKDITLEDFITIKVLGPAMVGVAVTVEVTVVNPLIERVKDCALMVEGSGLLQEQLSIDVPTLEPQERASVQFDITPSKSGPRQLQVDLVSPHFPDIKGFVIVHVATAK

[5] = Inhibition of guinea pig liver TG2 using Z-Gln-Gly/DMPDA as substrate preincubated for 3 mins followed by protein addition; design: species or system Cavia porcellus
[6] = target: T4, Coagulation factor XIII A chain (Homo sapiens) (UniProt P00488); assay: Inactivation of human F13a assessed as rate constant of enzyme inhibition using FRET- quenched A101 as substrate by fluorescence assay
T4 sequence (whole entry): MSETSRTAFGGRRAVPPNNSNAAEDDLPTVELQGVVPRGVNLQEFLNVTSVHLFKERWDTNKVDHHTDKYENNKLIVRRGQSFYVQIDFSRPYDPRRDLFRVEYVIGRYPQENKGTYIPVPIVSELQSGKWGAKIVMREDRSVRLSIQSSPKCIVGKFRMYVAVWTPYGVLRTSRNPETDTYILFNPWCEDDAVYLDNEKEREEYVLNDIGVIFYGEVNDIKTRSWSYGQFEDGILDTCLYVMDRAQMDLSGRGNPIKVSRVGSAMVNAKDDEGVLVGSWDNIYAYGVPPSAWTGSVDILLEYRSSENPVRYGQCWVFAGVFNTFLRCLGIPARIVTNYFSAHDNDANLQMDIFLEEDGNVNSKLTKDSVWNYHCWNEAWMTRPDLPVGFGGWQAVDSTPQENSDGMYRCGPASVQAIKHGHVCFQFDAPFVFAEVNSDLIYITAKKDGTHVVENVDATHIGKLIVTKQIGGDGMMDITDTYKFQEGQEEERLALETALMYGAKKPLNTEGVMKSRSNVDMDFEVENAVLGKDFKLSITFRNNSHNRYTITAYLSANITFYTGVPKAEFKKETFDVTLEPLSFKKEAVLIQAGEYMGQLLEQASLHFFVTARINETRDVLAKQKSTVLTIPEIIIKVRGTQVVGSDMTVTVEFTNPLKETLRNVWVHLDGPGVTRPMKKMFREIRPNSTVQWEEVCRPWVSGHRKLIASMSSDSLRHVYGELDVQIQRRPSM

[7] = species: Homo sapiens; assay: Selectivity ratio of Kobs for human TG2 to Kobs for activated human TG3
[8] = Antimigratory activity in human ECS cells at 20 uM treated for 2 hrs measured after 30 hrs by DAPI staining-based inverted fluorescent microscopy relative vehicle-treated control; format: functional
[9] = Inhibition of human ECS cells invasion by using Engelbreth-Holm-Swarm mouse tumor matrigel measured after 18 hrs by DAPI staining-based flourescence microscopy; format: functional, cell-based

Ratio [1]: 1.4 ×10⁴ /M/min | Kinact [2]: 2.6 min⁻¹ | pKi [3]: 4.47 | K [4]: 6.16 ×10⁻³ /min | pKi [5]: 4.54 | K [6]: 5.91 ×10⁻³ /min | Selectivity ratio [7]: 390 | pEC50 [9]: < 4.70
SMILES: C=CC(=O)NCCCC[C@H](NC(=O)OCc1ccccc1)C(=O)NCCOCCOCCNS(=O)(=O)c1cccc2c(N(C)C)cccc12
Activity [8]: 50%
